Laboratory results from patent US6423695B1, “Cytokine related treatments of disease” (Ribapharm, Inc., priority 1998, dated 2002).
“Also recorded” adds a separate entry of the source.

Experiments:
[1] = tested on: inosine monophosphate dehydrogenase (IMP DH); conditions: cited from earlier work
Th1 and Th2 responses = assay: Modulation of Th1 and Th2 responses at administered dose; format: in vivo
Source text: The effects of 2-β-D-ribofuranosylthiazole-4-carboxamide (Tiazofurin), a synthetic C-nucleoside analogue, on GTP levels supports this view. Tumor cells are characterized by high levels of inosine monophosphate dehydrogenase (IMP DH) activity, and it is known that IMP DH is the rate-limiting enzyme of GTP biosynthesis. Weber, G., IMP Dehydrogenase and GTP as Targets in Human Leukemia Treatment. Adv. Exp. Med. Biol. 309B:287-292 (1991). […] Weber, G., Critical Issues in Chemotherapy with Tiazofurin, Adv. Enzyme Regul. 29:75-95 (1989). Typical initial doses of Tiazofurin are about 4,400 mg/m^2, with consolidation doses of about 1100 to 3300 mg/m^2. […] In one aspect of the present invention it is contemplated that much smaller doses of Tiazofurin, in the range of 1/10th to one-half that set forth above, would be sufficient to specifically suppress either a Th1 response or a Th2 response without greatly reducing the other response.
The effects of 1β-D-ribofuranosyl-1,2,4-triazole-3-carboxamide (Ribavirin) also supports the present theory. […] Yamada, Y. et al., Action of the Active Metabolites of Tiazofurin and Ribavirin on Purified IMP Dehydrogenase, Biochem. 27:2193-2196 (1988). Ribavirin proceeds under a different mechanism than Tiazofurin in inhibiting IMP DH, however, acting on a different site on the enzyme molecule. Ribavirin is converted to its active metabolite, ribavirin-monophosphate (RMP), which inhibits the enzyme at the IMP-XMP site of IMP DH. As with Tiazofurin, the affinity of Ribavirin's active form to the enzyme is higher than that of the natural metabolite.
In another aspect of the invention, an abnormality reflected in increased response in one group of cytokines is treated by administering a nucleoside or other compound that increases response in another group of cytokines. Thus, for example, a common rapid onset type of allergy results in an abnormally elevated Th2 response.
It is also contemplated that an abnormality reflected in increased response in one group of cytokines can be treated by administering a nucleoside that increases response in another group of cytokines.

guanine nucleotide pools = conditions: cited from earlier work
tumors = conditions: in vivo; cited from earlier work
[2] = approximately 600 to 1000 mg/day

Compound | IMP DH activity [1] | Th1 response (Th1 and Th2 responses; [2]) | Th2 response (Th1 and Th2 responses; [2]) | Th1 response (Th1 and Th2 responses; low dosages of about 500 mg/day to about 1,000 mg/day) | Th1 and Th2 responses (Th1 and Th2 responses; relatively high doses, approximately 2200 mg/m^2 or about 1200-1500 mg/day for an adult) | guanine nucleotide pools (guanine nucleotide pools) | tumor remission (tumors) | Th1 and Th2 responses (Th1 and Th2 responses; Tiazofurin initial doses about 4,400 mg/m^2, consolidation doses about 1100 to 3300 mg/m^2)
NC(=O)c1ncn([C@@H]2O[C@H](CO)[C@@H](O)[C@H]2O)n1 [Ribavirin, 1β-D-ribofuranosyl-1,2,4-triazole-3-carboxamide] | inhibit IMP DH | promotes a Th1 response; also recorded: Th1 response is induced | suppresses a Th2 response; also recorded: Th2 response is suppressed | increases Th1 response | both Th1 and Th2 responses are inhibited |  |  | 
NC(=O)c1csc([C@@H]2O[C@H](CO)[C@@H](O)[C@H]2O)n1 [Tiazofurin, 2-β-D-ribofuranosylthiazole-4-carboxamide] | selectively block IMP DH activity |  |  |  |  | deplete guanine nucleotide pools | forces various tumors into remission | greatly reduced
